The results in this text go back to ChEMBL document CHEMBL5625232, “Development of selective class I protein arginine methyltransferase inhibitors through fragment-based drug design approach” (Eur J Med Chem, 2023).

Series [1] deals with T1, Histone-lysine N-methyltransferase SUV39H1 (Homo sapiens) (UniProt O43463).
T1 sequence (whole entry): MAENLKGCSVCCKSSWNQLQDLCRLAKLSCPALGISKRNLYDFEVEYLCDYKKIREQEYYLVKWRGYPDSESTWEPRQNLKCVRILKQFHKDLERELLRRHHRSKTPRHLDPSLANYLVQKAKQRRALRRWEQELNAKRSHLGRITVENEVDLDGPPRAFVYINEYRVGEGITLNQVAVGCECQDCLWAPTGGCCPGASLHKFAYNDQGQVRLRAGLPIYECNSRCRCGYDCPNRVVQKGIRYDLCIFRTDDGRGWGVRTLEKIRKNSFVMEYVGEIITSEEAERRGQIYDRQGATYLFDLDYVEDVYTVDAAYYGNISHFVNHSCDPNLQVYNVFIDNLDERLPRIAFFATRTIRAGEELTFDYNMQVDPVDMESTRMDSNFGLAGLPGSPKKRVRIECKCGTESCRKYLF
The series can be described thus: Displacement of 3H-SAM from SUV39H1 (unknown origin) using biotinylated-histone H3 peptide as substrate at 10 uM incubated for 45 mins by SPA assay relative to control. In general terms: Loss of bound radioactivity is the signal in a displacement assay; it reports binding, not function.

In series [2] the target is T2, Histone-lysine N-methyltransferase SMYD3 (Homo sapiens) (UniProt Q9H7B4).
T2 sequence (whole entry): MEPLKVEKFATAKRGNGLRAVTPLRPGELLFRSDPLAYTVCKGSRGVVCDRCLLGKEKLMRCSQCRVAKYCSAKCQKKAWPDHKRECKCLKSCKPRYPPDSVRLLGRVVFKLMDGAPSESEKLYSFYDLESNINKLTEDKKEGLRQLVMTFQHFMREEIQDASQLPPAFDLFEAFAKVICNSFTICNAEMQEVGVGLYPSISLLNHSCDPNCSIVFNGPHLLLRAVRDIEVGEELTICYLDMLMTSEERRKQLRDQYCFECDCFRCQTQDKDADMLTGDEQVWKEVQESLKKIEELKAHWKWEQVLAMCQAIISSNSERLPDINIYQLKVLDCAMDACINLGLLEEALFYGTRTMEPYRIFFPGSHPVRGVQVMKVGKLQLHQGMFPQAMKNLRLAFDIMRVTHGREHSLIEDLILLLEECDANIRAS
Put plainly: Displacement of 3H-SAM from SMYD3 (unknown origin) using biotinylated-MAP3K2 as substrate at 10 uM incubated for 45 mins by SPA assay relative to control.

Series [3] deals with T3, Histone-arginine methyltransferase CARM1 (Homo sapiens, UniProt Q86X55).
T3 sequence (Q86X55 whole entry): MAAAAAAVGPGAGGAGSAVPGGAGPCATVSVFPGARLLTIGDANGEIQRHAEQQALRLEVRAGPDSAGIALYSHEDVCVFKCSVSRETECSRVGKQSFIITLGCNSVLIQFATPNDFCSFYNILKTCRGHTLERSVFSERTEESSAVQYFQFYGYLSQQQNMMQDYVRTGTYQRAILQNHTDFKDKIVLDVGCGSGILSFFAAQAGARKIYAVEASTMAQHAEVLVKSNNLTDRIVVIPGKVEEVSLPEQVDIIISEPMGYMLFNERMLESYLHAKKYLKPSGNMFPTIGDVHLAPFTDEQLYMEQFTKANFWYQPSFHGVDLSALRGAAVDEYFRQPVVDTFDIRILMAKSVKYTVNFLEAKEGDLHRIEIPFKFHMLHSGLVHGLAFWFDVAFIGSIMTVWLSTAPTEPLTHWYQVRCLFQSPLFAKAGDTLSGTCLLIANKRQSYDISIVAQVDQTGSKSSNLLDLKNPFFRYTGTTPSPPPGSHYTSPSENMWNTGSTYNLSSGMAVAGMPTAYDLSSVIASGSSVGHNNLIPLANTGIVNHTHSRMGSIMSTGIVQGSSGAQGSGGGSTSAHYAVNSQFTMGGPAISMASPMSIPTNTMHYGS
Put plainly: Binding affinity to PRMT4 (unknown origin) assessed as dissociation constant by ITC analysis. (In general: In ITC the heat of successive injections is recorded.)

The target in series [4] is T1, Histone-lysine N-methyltransferase SUV39H1 (Homo sapiens). Put plainly: Displacement of 3H-SAM from SUV39H1 (unknown origin) using biotinylated-histone H3 peptide as substrate at 30 uM incubated for 45 mins by SPA assay relative to control.
Series [5] addresses T2, Histone-lysine N-methyltransferase SMYD3 (Homo sapiens). Put plainly: Displacement of 3H-SAM from SMYD3 (unknown origin) using biotinylated-MAP3K2 as substrate at 30 uM incubated for 45 mins by SPA assay relative to control.
The target of series [6] is Histone-lysine N-methyltransferase, H3 lysine-79 specific (Homo sapiens) (UniProt Q8TEK3). Put plainly: Displacement of 3H-SAM from DOT1L (unknown origin) at 30 uM incubated for 1 hr in presence of substrate by SPA assay relative to control.
A short description of series [7]: Aqueous solubility of compound at pH 7.4 incubated for 24 hrs by HPLC-UV spectroscopy. The following applies: aqueous medium. Format: physicochemical.
Series [8] can be described thus: Stability in human plasma assessed as compound remaining measured after 2 hrs by LC-MS/MS analysis. The format is ADME, cell-free. The following applies: read-out: Stability.
Series [9] in a line: Lipophilicity, log D of compound in 1-octanol at pH 7.4 incubated for 4 hrs by HPLC-UV analysis. Format: physicochemical. The settings on record: 1-octanol/aqueous phase.

SMILES strings stand for the structures. Converted amounts (≈) assume the structure as drawn.

Histone-lysine N-methyltransferase, H3 lysine-79 specific (Homo sapiens), sequence (Q8TEK3 whole entry, looked up): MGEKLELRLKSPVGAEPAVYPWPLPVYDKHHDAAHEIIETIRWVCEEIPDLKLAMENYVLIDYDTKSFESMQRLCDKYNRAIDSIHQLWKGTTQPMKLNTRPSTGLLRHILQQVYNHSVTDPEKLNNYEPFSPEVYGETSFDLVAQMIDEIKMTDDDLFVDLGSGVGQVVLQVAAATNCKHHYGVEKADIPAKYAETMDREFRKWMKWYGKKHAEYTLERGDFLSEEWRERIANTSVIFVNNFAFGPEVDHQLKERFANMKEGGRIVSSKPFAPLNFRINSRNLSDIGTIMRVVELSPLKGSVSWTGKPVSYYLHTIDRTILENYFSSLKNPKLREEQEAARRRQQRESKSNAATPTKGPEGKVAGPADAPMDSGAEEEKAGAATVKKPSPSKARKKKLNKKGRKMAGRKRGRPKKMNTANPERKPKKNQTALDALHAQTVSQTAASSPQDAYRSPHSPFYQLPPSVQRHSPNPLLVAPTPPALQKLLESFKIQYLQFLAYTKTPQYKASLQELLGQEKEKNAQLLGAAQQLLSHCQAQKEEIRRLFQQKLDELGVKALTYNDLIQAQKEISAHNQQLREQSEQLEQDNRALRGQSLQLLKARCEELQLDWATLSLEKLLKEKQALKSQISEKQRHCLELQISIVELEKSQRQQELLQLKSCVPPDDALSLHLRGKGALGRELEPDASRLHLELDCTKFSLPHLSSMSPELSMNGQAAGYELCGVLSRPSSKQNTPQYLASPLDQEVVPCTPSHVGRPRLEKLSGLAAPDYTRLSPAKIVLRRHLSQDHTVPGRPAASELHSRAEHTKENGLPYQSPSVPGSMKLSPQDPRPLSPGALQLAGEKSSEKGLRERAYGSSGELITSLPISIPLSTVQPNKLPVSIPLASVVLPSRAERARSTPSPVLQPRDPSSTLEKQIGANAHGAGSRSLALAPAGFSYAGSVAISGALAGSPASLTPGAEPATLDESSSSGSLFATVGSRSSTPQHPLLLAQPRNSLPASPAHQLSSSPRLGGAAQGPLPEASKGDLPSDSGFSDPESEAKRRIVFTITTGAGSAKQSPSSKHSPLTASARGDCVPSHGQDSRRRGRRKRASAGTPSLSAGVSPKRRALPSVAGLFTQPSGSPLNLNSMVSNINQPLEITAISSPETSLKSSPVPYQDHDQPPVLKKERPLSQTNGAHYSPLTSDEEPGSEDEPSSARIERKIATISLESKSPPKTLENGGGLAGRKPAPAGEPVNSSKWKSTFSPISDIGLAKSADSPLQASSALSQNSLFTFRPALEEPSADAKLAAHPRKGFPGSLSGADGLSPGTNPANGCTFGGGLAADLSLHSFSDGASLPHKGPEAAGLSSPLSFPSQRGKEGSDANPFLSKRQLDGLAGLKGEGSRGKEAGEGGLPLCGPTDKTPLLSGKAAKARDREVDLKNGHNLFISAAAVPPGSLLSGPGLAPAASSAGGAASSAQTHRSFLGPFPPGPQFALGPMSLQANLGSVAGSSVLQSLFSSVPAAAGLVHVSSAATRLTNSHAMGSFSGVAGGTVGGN

Broadly, the inhibition is the drop in the measured response relative to a control, in per cent. Usually Kd stands for the constant that tells how readily two partners part at equilibrium. Take `CNCCN1CC[C@H](NC(=O)c2ccc3c(Nc4ccc(CN)cc4)ncnc3c2)C1`: the inhibition in series [1] and in series [2] was less than 25% throughout. Moreover, the Kd in series [3] was found to be 20 µM.
Usually solubility stands for how much of the substance goes into solution per volume. Read a low solubility as little dissolved substance. A word on the logD: it is the decadic logarithm of the distribution of all forms, ionised or not, between an organic phase and buffer at a given pH. A high value points to a more lipophilic compound. Regarding `CNCCN1CCC(NC(=O)c2ccc3c(Nc4ccc(CN)cc4)ncnc3c2)C1` (racemic), the inhibition in [4] was less than 25%; in series [5], less than 25%; in [6], 11%. The same compound showed a solubility at 24 h in series [7] of 187 µg/mL (≈ 446 µM). The remaining at 2 h in series [8] turned out to be 91.3%. The compound further yielded a logD at 4 h in [9] of -2.16.
Take `CNCCN1CC[C@@H](NC(=O)c2ccc3c(Nc4ccc(CN)cc4)ncnc3c2)C1`: the inhibition in series [1] and in series [2] was less than 25% each time. Besides, the dissociation constant Kd in series [3] was found to be 25 µM. For the same compound, in series [7], the concentration in solution (solubility at 24 h) was 210 µg/mL (≈ 501 µM). Besides, the remaining at 2 h in series [8] amounted to 71.2%. Further, the log distribution coefficient (logD) at 4 h in series [9] was -2.27.
